We go through 8 molecules from EPA's ToxValDB 9.5 (doi:10.2903/j.efsa.2014.3524).

The subject of data set [1] is Rattus norvegicus. The conditions noted are these: acute; oral; mortality.
Data set [2] relates to Bird. The conditions noted are these: oral, mortality; for LD50: acute, unspecified; for LC50: short-term, feed.

Consider `CCC=CC=CCCCCCCOC(C)=O` (stereo in doubt) [(7Z,9E)-Dodeca-7,9-dienyl acetate], for which the LD50 in data set [1] is greater than 5000 mg/kg.

`C/C=C/C=C/CCCCCCCO` [(8E,10E)-8,10-Dodecadien-1-ol]: the LD50 in data set [2] is greater than 2050 mg/kg; in data set [1], greater than 5000 mg/kg.

As to `CCC/C=C/CCCCCCCOC(C)=O` [(E)-Dodec-8-enyl acetate], in data set [1], the LD50 was greater than 5000 mg/kg.

Consider `CCCC/C=C\CCCCCCCCOC(C)=O` [(Z)-9-Tetradecenyl acetate], for which, in data set [1], the LD50 was greater than 5000 mg/kg.

For the molecule `CCCC/C=C\CCCCCCCCCC=O` [(Z)-11-Hexadecenal], in data set [2], the LD50 is greater than 2250 mg/kg and the LC50 was greater than 5620 mg/kg. In data set [1], this molecule registered an LD50 greater than 5000 mg/kg.

In data set [1], `CC/C=C\CCCCCCCCOC(C)=O` [(Z)-Dodec-9-enyl acetate] registered an LD50 greater than 5000 mg/kg.

In turn, `CC/C=C\CCCCCCCCCCOC(C)=O` [(Z)-Tetradec-11-enyl acetate] showed an LD50 in data set [1] greater than 5000 mg/kg.

Turning to `CCCC/C=C/CC/C=C\CCCCCCOC(C)=O` [Hexadeca-7,11-dien-1-yl acetate (Z,E)-], in data set [2], the LD50 was greater than 2250 mg/kg and the LC50 was greater than 5620 mg/kg. For the same molecule, the LD50 in data set [1] is greater than 5000 mg/kg.

As usually defined, the LD50 is the dose expected to kill half of the subjects tested. Low readings indicate greater toxicity, high ones lower toxicity.
